The test system of assay [1] is α-tubulin. Briefly: Western blot of isolated (soluble) and polymerized tubulin from HUVECs. Type of assay: cell-based, Human. The note with it: 1 uM, 10 uM and 20 uM, 24 hours, higher concentration. An excerpt: To investigate whether such apoptosis phenomenon is caused by a cytoskeletal abnormality that affects cell division and cell differentiation, the change in α-tubulin expression in the cytoskeleton was identified by the division of tubulin into isolated form (soluble, S) and polymerized form (ppt, P). HUVECs (obtained from ATCC) were cultivated in F25 culture flasks containing F-12K (Sigma) medium supplemented with 10% FBS and endothelial cell growth supplement (ECGS, E2759, Sigma). After cultivation for 24 hours, the cells were treated with sodium meta arsenite at a concentration of 1 uM, 10 uM and 20 uM. Cells were collected 24 hours after treatment. The collected cells were suspended in RIPA buffer (50 mM Tris, pH 7.5, 150 mM NaCl, 1% NP-40, 0.5% sodium deoxychloate, 0.1% SDS, protease inhibitor) at room temperature for 10 minutes and then centrifuged for 30 minutes at 22° C. at 13,200 rpm to separate the supernatant liquid from the sediment. RIPA solution was added to the sediment in the same amount and the sediment was crushed using an ultrasonic cell crusher. The protein from the supernatant liquid and the sediment were assayed using a BCA protein kit (Thermo, 23227) and then the same amount of protein (3 μg) was mixed with protein sample buffer and it was warmed up in a water bath in boiling water at 100° C. for five minutes. SDS-PAGE was conducted on a 10% gel. […]

In assay [2] the test system is CT26 (mouse colon cancer). The experiment in a line: DCE-MRI of tumor vascularity (Kep) in CT26 tumor mice. Type of assay: in vivo. The procedure:
To determine whether the occurrence of central necrosis of tumors 24 hours after treatment was caused by the reduction of vascularity, DCE-MRI was used before the medication was administered and 24 hours after administration.
Inoculate CT26 (mouse colon cancer) 2×10^6 cell subcutaneously into mice on the upper parts of their thighs.
After checking the tumor size between 6 to 10 mm, acquire images through MRI.
Image Acquisition: Use a magnetic resonance imaging device (i.e., 3 Tesla Intera human clinical scanner; Philips medical systems) and a mouse coil with an inner diameter of 4 cm to get images. Acquire images before the drug is administered and those 24 hours after that for two days.
MR Pulse Sequence as follows: Dynamic Contrast enhanced MRI scan: FOV (mm)=50×35; RFOV (%)=71; Matrix scan=112; reconstruction=224; TR/TE (ms)=12/4.0; slice thickness=1 mm; slice number=11; dynamic scans=60.
i. Conduct an experiment to the subjects under anesthesia by using an inhalation anesthetic mixing 1.5% isoflurane in 100% oxygen at a flow rate of 1 L/min.
ii. Cannulate an intravenous injection line through the tail vein to inject a contrast agent.
iii. Use Gd-DTPA (Magnevist, Schering, Germany, 281 mg/kg) as a contrast agent and get pre-contrast images before injecting the contrast agent and post-contrast images after injecting it.
iv. After getting the images, inject KML001 (10 mg/kg) and Arsenic trioxide (7.5 mg/kg) intraperitoneally.
v. Get images through a dynamic scan again 24 hours after injection.
Accordingly, the groups of animals with which the DCE-MRI data was obtained are as follows: Group of animals treated with ATO: n=4, Group of animals treated with Saline: n=4 and Group of animals treated with KML001: n=6.
As the low data in MRI was mapped from each result of the DCE-MRI to the positive control group of animals treated with ATO, the negative control group of animals treated with saline and the experimental group of animals treated with KML001, Kep values important for tumor vascularity were calculated. Kep (rate constant) is the back diffusion rate constant from interstitial space to vascular space, reflecting leakage of tumor vessels, i.e., a measurement of vascularity.

In assay [3] the test system is HUVECs. The experiment in a line: Apoptosis of HUVECs (Annexin-V FACS analysis). Type of assay: cell-based, Human. The procedure: To determine the effect, if any, of sodium meta arsenite on vascularization, the effect on endothelial cells (which are essential for vascularization) was first analyzed. Human umbilical cord vein endothelial cells (HUVECs offered by ATCC) were cultivated in 96-well microculture plates containing F-12K (Sigma) medium supplemented with 10% FBS and endothelial cell growth supplement (ECGS, E2759, Sigma). For the cytotoxicity test of the cells after 24 hour cultivation, the cells were treated with KML001 at the concentration of 0.1 nM, 1 nM, 10 nM, 1 uM, 10 uM and 100 uM. At 24 hours and 48 hours after treatment, 20 μl/well of CellTiter 96® Aqueous One Solution (by Promega) Reagent was added on each well and reacted for one hour at 37° C. The reacted 96-well plates were measured at 490 nm using a spectrophotometer (UVStar, Greiner Bio-One). To analyze apoptosis of HUVECs, the cells were cultivated on F25 flasks using the same method as discussed above and then the cells were treated with sodium meta arsenite at a concentration of 10 uM, 20 uM and 50 uM. Cells were collected after 24 and 48 hours. The collected cells were stained for 30 minutes with Annexin-V for FACS analysis. After two washes, the cells were analyzed by using flow cytometry (FACSCALIBUR, BECTON DICLINSON).

Take `O=[As][O-].[Na+]` [sodium meta arsenite]: in assay [1], the “protein level in sediment (polymerized tubulin)” value is reported as “reduced the protein level” and the “protein level in supernatant liquid (isolated tubulin)” value is “reduced the protein level”. Besides, in assay [2] (24 hours after intraperitoneal injection vs pre-treatment, KML001 10 mg/kg, ATO 7.5 mg/kg), the “Kep values (back diffusion rate constant, tumor vascularity)” value is “significantly reduced”. Also, the “contrast enhancement of the tumors in the MRI” value in assay [2] (24 hours after treatment) is recorded as “decreased”. Moreover, the “apoptosis, dependence on concentration” value in assay [3] (10 uM, 20 uM and 50 uM) is listed as “concentration dependent, increasing with increased concentration”. Moreover, the apoptosis over time result in assay [3] (24 and 48 hours exposure) was “increased over time”.

For the origin of these results see patent US20120251628A1, “COMPOSITIONS AND METHODS FOR TREATMENT OF CANCER” (priority 2011, published 2012).
